# Source: article PMC10518717, “High-Throughput Screening and Proteomic Characterization of Compounds Targeting Myeloid-Derived Suppressor Cells” (Molecular & Cellular Proteomics : MCP, 2023)
# Legend:
# [1] = molecular target: T1, NUP-MDSC cell lysate (Mus musculus, UniProt O70589); test: Solvent-induced protein precipitation profiling, proteome-wide; format: binding; details: protein Cask; soluble fraction; 26 uM
# T1 construct: endogenous in cells; host or cells: mouse NUP-MDSC (lysate)
# T1 sequence (O70589 1-926): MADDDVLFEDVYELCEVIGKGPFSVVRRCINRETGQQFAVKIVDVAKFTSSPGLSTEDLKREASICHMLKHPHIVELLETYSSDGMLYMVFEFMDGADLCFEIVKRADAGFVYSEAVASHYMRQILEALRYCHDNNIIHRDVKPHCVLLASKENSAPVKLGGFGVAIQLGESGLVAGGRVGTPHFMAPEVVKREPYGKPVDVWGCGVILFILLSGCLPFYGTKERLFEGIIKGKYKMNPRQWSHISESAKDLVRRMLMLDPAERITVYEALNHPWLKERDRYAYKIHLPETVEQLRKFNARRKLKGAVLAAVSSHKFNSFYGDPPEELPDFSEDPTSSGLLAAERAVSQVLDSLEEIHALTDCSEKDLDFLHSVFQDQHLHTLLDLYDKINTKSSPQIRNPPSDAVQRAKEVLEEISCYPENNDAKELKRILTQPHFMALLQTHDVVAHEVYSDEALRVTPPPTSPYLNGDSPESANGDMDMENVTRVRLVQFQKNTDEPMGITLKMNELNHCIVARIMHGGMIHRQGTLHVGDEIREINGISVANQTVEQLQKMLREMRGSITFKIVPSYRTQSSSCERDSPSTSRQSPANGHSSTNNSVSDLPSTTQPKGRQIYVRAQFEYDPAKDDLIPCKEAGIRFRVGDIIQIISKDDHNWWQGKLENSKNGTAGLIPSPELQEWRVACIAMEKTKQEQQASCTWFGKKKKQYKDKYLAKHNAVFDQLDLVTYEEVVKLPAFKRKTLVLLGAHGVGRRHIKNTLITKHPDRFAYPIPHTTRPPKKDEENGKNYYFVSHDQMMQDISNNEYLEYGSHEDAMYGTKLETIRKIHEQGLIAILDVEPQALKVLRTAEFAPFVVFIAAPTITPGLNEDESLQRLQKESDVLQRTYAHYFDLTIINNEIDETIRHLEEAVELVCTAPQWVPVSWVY
# Procedure: (§1) NUP-MDSCs were differentiated as described above, washed twice with PBS, resuspended in lysis buffer (PBS, 0.4% IGEPAL CA-630, 1× Halt Protease-Inhibitor Cocktail (Thermo Fisher Scientific)), and subjected to three freeze-thaw cycles. The lysate was cleared by centrifugation for 30 min at 18,000g and 4 °C. The soluble fraction was diluted to 4 mg/ml and allowed to warm up to room temperature. Equal volumes of lysate were treated in triplicates with 100 x compound stock solutions (in DMSO) or DMSO for 15 min at room temperature (final concentrations: cmpd 2: 7.8 μM (3xEC50) and 26 μM (10xEC50), cmpd 3: 10 μM and 26 μM). Similar to a previous study ([46]), each sample was divided into eight aliquots to be denatured using different concentrations (8%, 10%, 12%, 14%, 16%, 18%, 20%, 22%) of acetone:ethanol:acetic acid (50:50:0.1) in water for 20 min at 37 °C with vigorous shaking. Aggregated proteins were separated by centrifugation for 45 min at 4 °C and 3900g. Next, equal amounts of the soluble fraction were pooled for subsequent proteomic analysis.
# (§2) Methanol was added to 100 μg of the pooled supernatants to a final concentration of 70% and further processed according to the R2P1 protocol ([47]), with tryptic digestion performed in 50 mM Hepes (pH 8.5). Elution fractions were combined and dried by vacuum centrifugation. Dried samples were resuspended in deionized water, and TMT labeling was performed according to Zecha et al. ([35]). All 15 samples (5 treatment conditions in triplicates) were labeled with one TMTpro plex. Next, equal amounts were pooled and desalted by C18 solid-phase extraction cartridges (Sep-Pak Vac 1 cc C18 Cartridges, Waters Corp). Desalted peptides were chromatographically separated via basic reversed phase chromatography as previously described ([36]) into 24 fractions, dried down, and stored at −20 °C until further analysis.
# (§3) Peptides were analyzed via LC-MS/MS on a Vanquish Neo UHPLC coupled to an Orbitrap Eclipse Tribrid mass spectrometer (Thermo Fisher Scientific). […] The mass spectrometer was operated in data-dependent mode and positive ionization mode. Samples were measured, employing a MS3 method with real-time search. […] Iontrap-MS2 spectra for peptide identification were acquired using HCD fragmentation with 35% NCE, an isolation window of 0.7 m/z, an AGC target value of 5e4 charges, and a maxIT of 35 ms. To obtain quantitative information on TMT reporter ions, each peptide precursor was fragmented again as for MS2 analysis followed by synchronous selection of the up to 10 most intense peptide fragments in the iontrap ([37]) and further fragmentation via HCD using an NCE of 55%. For the MS3 scan, real-time search was enabled to only trigger a MS3 scan for peptides that are TMT-labeled and can be identified (searched against a mouse database, same as used for maxquant processing). The MS3 scan was recorded in the OT at 30,000 resolution (scan range 110–500 m/z, isolation window of 0.7 m/z, AGC of 2e4 charges, maxIT of 120 ms). The cycle time was set to 3 s, and the dynamic exclusion lasted for 60 s.
# (§4) Raw files were searched with Maxquant (v. 2.0.3.0) against the mouse reference proteome (UP000000589, canonical, download 10/2019, 55,029 entries) with standard settings for reporter ion MS3 unless described otherwise ([39]). Isotope impurities of the TMT lot were specified to allow MaxQuant the automated correction of TMT intensities. […] Trypsin/P was specified as the proteolytic enzyme with up to two missed cleavage sites allowed. […]
# [2] = test system: NUP-MDSC cell lysate; test: as above; format: binding, mouse; details: for log2 FC cmpd2_26uM/cmpd3_26uM: soluble fraction, 26 uM
# Procedure: as §1, §2, §3, §4
smiles,measurement,setting,value
CCOC(=O)c1nnn(-c2nn3nnnc3c3ccccc23)c1C [compound 2],log2 FC cmpd2_26uM/cmpd3_26uM,[1],0.23
same,stabilization of proteins against solvent-induced aggregation,"[2]; 7.8 μM and 26 μM, vs compound 3",significant stabilization of several proteins
same,log2 FC cmpd2_26uM/cmpd3_26uM,[2]; protein Magohb;Magoh,0.25
same,log2 FC cmpd2_26uM/cmpd3_26uM,[2]; protein Srcap,-0.12
